Laboratory results from BigSolDB 2.1.

## NC(N)=S
In ethanol, 292.65 K
  solubility (mole fraction): 0.0224
In ethanol, 293.85 K
  solubility (mole fraction): 0.0227
In ethanol, 299.45 K
  solubility (mole fraction): 0.0256
In ethanol, 302.75 K
  solubility (mole fraction): 0.0281
In ethanol, 305.85 K
  solubility (mole fraction): 0.0295
In ethanol, 308.95 K
  solubility (mole fraction): 0.0324
In ethanol, 309.4 K
  solubility (mole fraction): 0.0331
In ethanol, 311.65 K
  solubility (mole fraction): 0.0345
In ethanol, 312.55 K
  solubility (mole fraction): 0.035
In ethanol, 312.75 K
  solubility (mole fraction): 0.0353
In ethanol, 313.9 K
  solubility (mole fraction): 0.0364
In ethanol, 314.35 K
  solubility (mole fraction): 0.0375
In ethanol, 315.55 K
  solubility (mole fraction): 0.0384
In ethanol, 316.4 K
  solubility (mole fraction): 0.0386
In ethanol, 318.2 K
  solubility (mole fraction): 0.0399
In ethanol, 320 K
  solubility (mole fraction): 0.0422
In methanol, 298.65 K
  solubility (mole fraction): 0.0534
In methanol, 301.45 K
  solubility (mole fraction): 0.0565
In methanol, 304.35 K
  solubility (mole fraction): 0.0606
In methanol, 307.85 K
  solubility (mole fraction): 0.0643
In methanol, 309.05 K
  solubility (mole fraction): 0.0667
In methanol, 311.25 K
  solubility (mole fraction): 0.0702
In methanol, 314.55 K
  solubility (mole fraction): 0.0761
In methanol, 319.45 K
  solubility (mole fraction): 0.0821
In methanol, 321.25 K
  solubility (mole fraction): 0.0872
